Data from patent US7034020B2, “Derivatives of butyric acid and uses thereof” (The University of Arkansas for Medical Science, priority 1999, dated 2006).

Tests used:
[1] = system: total anti-ovalbumin antibody in the serum; assay: Primary anti-ovalbumin antibody production in vivo (ELISA), derivatives on Days 1–3; parameters: species or system C57BL/10 mice; details: 0.091 mmol ip Days 1–3; serum day 10
Protocol: C57BL/10 mice are injected ip on Day 0 with ovalbumin followed by ip injections of saline, or one of three different butyrate derivatives on Days 1–3.
The butyrate derivatives are tested for their ability to suppress lymphocyte activity in vivo. C57BL/10 mice (5 mice/group) are injected ip with 100 μg of ovalbumin in conjunction with complete Freund's adjuvant on Day 0. In one experiment, the mice also receive one ip injection per day of the butyrate derivatives (0.091 mmol) on Days 1–3. Serum samples are obtained 10 days after the initial injection with ovalbumin, and tested for the presence of anti-ovalbumin antibodies using an ELISA. To perform the ELISA 96 well plates (Costar 3595) are first incubated with ovalbumin (100 μl/well of 100 μg/ml in PBS) overnight at 4° C. The plates are then washed 4 times with PBS and 0.5% Tween 20, blocked with 1% fetal calf serum for 30 minutes at 37° C., and washed again. Individual serum samples are added (diluted 1/100 or 1/1000 in PBS), and the plates are incubated for 2 hours at 20° C. The plates were next washed 7 times with PBS/Tween, and alkaline phosphate (AP)-labeled goat anti-mouse IgG, IgA, IgM (H+L) (Zymed) is added ( 1/1000) for 1 hour at 20° C. The plates are again washed 7 times with PBS/Tween, alkaline phosphate substrate (1 mg/ml) is added. After 10 minutes, Ig levels are quantified by an ELISA reader (absorbance 405 nm). The concentration of anti-ovalbumin is determined by comparison with a standard curve obtained using mouse anti-ovalbumin antibody (Sigma; St. Louis, Mo.). To measure isotype-specific anti-ovalbumin antibodies, serum samples (diluted at 1/300 or 1/1000) are incubated on the ovalbumin-coated plates as described above. […] Ig levels are presented as OD measurements.

[2] = Toxicity in mice treated with MEB; assay type: in vivo; details: dose approximated 0.7 g/kg/day
[3] = system: KLH-specific Th1 cells (clone D3); assay: IL-2-induced proliferation of Th1 cells in the presence of butyrate derivatives; assay type: cell-based, C57BL/10 mice
Protocol: KLH-specific Th1 cells (clone D3) are stimulated with IL-2 (10% Con A CM) in the presence of different concentrations of n-butyrate or butyrate derivatives. In FIG. 2A Th1 cell proliferation is measured after 2 days. In FIG. 2B, the inhibitors are washed out after 24 hours, and the Th1 cells reincubated with fresh IL-2-containing medium. Proliferation of the Th1 cells restimulated with IL-2 in the absence of the inhibitors is measured after an additional 2 days. This experiment was repeated three times, and the proliferation data represents the means of the […] experiments.
The KLH-specific were developed in C57BL/10 mice, and characterized as Th1 clones based on their ability to secrete IL-2, but not IL-4. The Th1 clones were passed every 7–14 days using KLH, irradiated syngeneic spleen cells as antigen-presenting cells (APC), and IL-2-containing Con A CM using a previously described protocol (Gilbert et al., 1990).
To test the ability of the butyrate derivatives to suppress T cell activity […], Th1 cells [(5×10^4 cells/well in 96 well plates (Costar)] are stimulated with 10% IL-2-containing Con A CM in the presence of various concentrations of different butyrate derivatives. In some cultures, Th1 cell proliferation is measured after two days. In other cultures, the Th1 cells are washed after 24 hours, and fresh IL-2-containing medium is added. Proliferation is measured in the washed, IL-2-restimulated cultures after an additional 2 days.

In the case of `CCCC(=O)OCCN1CCOCC1.Cl` [MEB, 2-(4-Morpholinyl)ethyl butyrate hydrochloride], the “Decrease of primary anti-ovalbumin antibody response versus saline” value [1] is reported as 65%, the Toxicity [2] is reported as “No toxicity” and the “Suppression of IL-2-induced proliferation of Th1 cells” value ([3]; 10% Con A CM, various concentrations, proliferation after 2 days) is reported as “comparable to n-butyrate”. The “Proliferation to IL-2 after compounds are washed out” value ([3]; washed after 24 hours, fresh IL-2 medium, additional 2 days) was “regained their ability to proliferate to IL-2”.
